Source: patent publication US20110171285A1, “Design of Fibrinogen and Fibrinogen Derived Products with Reduced Bacterial Binding by Using Modified Sequences of Fibrinogen Chains” (priority 2009, published 2011)
Ends that are not written are not given here.

How the values were obtained:
rClfA229-545 = target: T1, rClfA229-545 (Staphylococcus aureus, UniProt Q53653); test: Isothermal titration calorimetry of Fg γ-peptide binding to rClfA229-545
T1 construct: 6xHis; made in house; host or cells: E. coli
T1 sequence (Q53653 229-545): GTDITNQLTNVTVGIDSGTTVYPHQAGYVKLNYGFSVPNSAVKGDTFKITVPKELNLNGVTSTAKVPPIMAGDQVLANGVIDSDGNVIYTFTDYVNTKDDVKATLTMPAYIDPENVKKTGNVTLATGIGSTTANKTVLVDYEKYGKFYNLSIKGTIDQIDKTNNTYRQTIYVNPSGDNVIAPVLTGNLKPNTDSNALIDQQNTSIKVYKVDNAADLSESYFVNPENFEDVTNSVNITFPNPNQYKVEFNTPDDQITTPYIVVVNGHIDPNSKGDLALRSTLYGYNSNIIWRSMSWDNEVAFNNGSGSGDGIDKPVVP
Experimental: Peptide 0.6-0.9 mM was injected into a cell with rClfA229-545 in a VP-ITC (MicroCal Inc.). The resulting data was analyzed using Origin 5.0 from MicroCal using a single binding site model.

ClfA229-545 = ClfA229-545 (Staphylococcus aureus, UniProt Q53653); conditions: 1 μg Fg/well, varying concentrations of ClfA229-545, read at 405 nm (FIG. 6)
Experimental: About 3 mg lyophilized salmon Fg (batch “A”) was dissolved into 3 mg/ml in PBS. Human and salmon Fg was coated onto 4HBX microtiter plates (1 μg/well) at 4° C. over-night in Dulbecco's PBS without MgCl2 nor CaCl2 ions). The plate was blocked for 1 hour room temperature (RT) using 5% bovine serum albumin (BSA) in TBS-T. Recombinant His-tagged ClfA229-545 was added in varying concentrations to test for binding to Fg using TBS solution for 1 hour at room temperature. Bound ClfA was detected with anti-ClfA rabbit antibodies (dil 1:2000) in TBS-T with 1% BSA followed by goat anti-rabbit secondary antibodies (dil 1:2000) conjugated to alkaline phosphatase using the same buffer. Color detection was read after 30-60 min at 405 nm in a microtiter plate reader using phospatase substrate from Sigma dissolved in 1M DEA. No background subtraction, data points are triplicates except for no ClfA where six data points were used. Human or salmon Fg was coated over-night and after blocking varying concentrations of ClfA was added to Fg.

S. aureus USA300 NARSA = test: Adherence of S. aureus USA300 NARSA to Fg coated microtiter plates (crystal violet, OD 590 nm); assay type: cell-based; conditions: 1 μg Fg/well, MRSA strain grown over-night in tryptic soy broth (FIG. 7)
Experimental: Microtiter plates were coated with 1 μg human or salmon Fg per well over-night at 4° C., followed by blocking with 5% bovine serum albumin in TBS-T (Tris-buffered saline with 0.05% Tween-20) in room temperature for about 1 hour. Two bacterial colonies (designated by 1 or 2 in FIG. 7) of S. aureus USA300 NARSA (an MRSA strain) were inoculated in tryptic soy broth at 37° C. over-night, washed and resuspended in PBS and various bacterial dilutions were incubated in the wells for 1 hour at room temperature. After washing in PBS, bound bacteria was fixed using 25% formaldehyde followed by 0.5% crystal violet stain. After PBS washing, 10% acetic acid was added and bound color was measured by crystal violet staining and optical density read at 590 nm in a microtiter plate reader.

Row | Substance | Kd (rClfA229-545) [µM] | binding to ClfA229-545 (rClfA229-545; ITC, in solution (FIGS. 3A and 3B)) | binding of ClfA N2N3 to coated Fg (ClfA229-545) | binding (adherence) of S. aureus USA300 to coated Fg (S. aureus USA300 NARSA)
1 | GEGQQHHLGGAKQAGDV [human 17-mer peptide] | 23 |  |  | 
2 | GQQHHLGGAKQAGDV [human 15-mer peptide] | 40 | binds to ClfA |  | 
3 | human Fg: human fibrinogen |  |  | dose-dependent binding | bound
